The test has as its target T1, full length active recombinant SYK enzyme (Homo sapiens, UniProt P43405).
T1 construct: full length active recombinant SYK enzyme (Millipore, Calif.); purchased Millipore
In words: Inhibition of Syk tyrosine phosphorylation activity (LANCE TR-FRET kinase assay). It counts as biochemical. (In general: Time-resolved FRET reads energy transfer from a long-lived donor to a nearby acceptor.)

The record followed here is US8846928B2 (Portola Pharmaceuticals, Inc., priority 2010, dated 2014).

As a reminder, the IC50 is the concentration at which inhibition is half-maximal.

As to `NC(=O)c1cc(F)c(N[C@@H]2CCCC[C@@H]2N)nc1Nc1cccc2ccncc12` [Example 75, 6-((1R,2S)-2-aminocyclohexylamino)-5-fluoro-2-(isoquinolin-8-ylamino)nicotinamide], the IC50 lay within 0.1 to 1 µM.

Take `NC(=O)c1cc(F)c(N[C@@H]2CCCC[C@@H]2N)nc1Nc1ccc2nccnc2c1` [Example 76, 6-((1R,2S)-2-aminocyclohexylamino)-5-fluoro-2-(quinoxalin-6-ylamino)nicotinamide]: the IC50 lay in the range of 0.001 to 0.01 µM.

Consider `NC(=O)c1cc(F)c(N[C@@H]2CCCC[C@@H]2N)nc1Nc1cnc2nccnc2c1` [Example 77, 6-((1R,2S)-2-aminocyclohexylamino)-5-fluoro-2-(pyrido[3,2-b]pyrazin-7-ylamino)nicotinamide], for which the IC50 is 0.01 to 0.1 µM.

As to `NC(=O)c1cc(F)c(N[C@@H]2CCCC[C@@H]2N)nc1Nc1ccc2c(c1)OCCO2` [Example 78], the IC50 fell in the range of 0.001 to 0.01 µM.

`COCCOc1cccc(Nc2nc(N[C@@H]3CCCC[C@@H]3N)c(F)cc2C(N)=O)c1` [Example 79, 6-((1R,2S)-2-aminocyclohexylamino)-5-fluoro-2-(3-(2-methoxyethoxy)phenylamino)nicotinamide]: the IC50 fell in the range of 0.001 to 0.01 µM.

On to `NC(=O)c1cc(F)c(N[C@@H]2CCCC[C@@H]2N)nc1Nc1cccc(OC2CCOCC2)c1` [Example 80, 6-((1R,2S)-2-aminocyclohexylamino)-5-fluoro-2-(3-(tetrahydro-2H-pyran-4-yloxy)phenylamino)nicotinamide], for which the IC50 was in the range of 0.001 to 0.01 µM.

As for `NC(=O)c1cc(F)c(N[C@@H]2CCCC[C@@H]2N)nc1Nc1ccc(OC2CCOCC2)cc1` [Example 81, 6-((1R,2S)-2-aminocyclohexylamino)-5-fluoro-2-(4-(tetrahydro-2H-pyran-4-yloxy)phenylamino)nicotinamide], the IC50 lay in the range of 0.01 to 0.1 µM.

Take `Cc1cc(Nc2nc(N[C@@H]3CCCC[C@@H]3N)c(F)cc2C(N)=O)sn1` [Example 82, 6-((1R,2S)-2-aminocyclohexylamino)-5-fluoro-2-(3-methylisothiazol-5-ylamino)nicotinamide]: the IC50 is 0.001 to 0.01 µM.

Regarding `Cn1cc(Nc2nc(N[C@@H]3CCCC[C@@H]3N)c(F)cc2C(N)=O)cn1` [Example 83, 6-((1R,2S)-2-aminocyclohexylamino)-5-fluoro-2-(1-methyl-1H-pyrazol-4-ylamino)nicotinamide], the IC50 was in the range of 0.01 to 0.1 µM.

For the compound `NC(=O)c1cc(F)c(N[C@@H]2CCCC[C@@H]2N)nc1Nc1ccnnc1` [Example 84], the IC50 lay in the range of 0.1 to 1 µM.

Regarding `Cc1cc(Nc2nc(N[C@@H]3CCCC[C@@H]3N)c(F)cc2C(N)=O)ccn1` [Example 85, 6-((1R,2S)-2-aminocyclohexylamino)-5-fluoro-2-(2-methylpyridin-4-ylamino)nicotinamide], the half-maximal inhibitory concentration (IC50) lay in the range of 0.001 to 0.01 µM.

For `Cc1cc(Nc2nc(N[C@@H]3CCCC[C@@H]3N)c(F)cc2C(N)=O)cc(C)n1` [Example 86, 6-((1R,2S)-2-aminocyclohexylamino)-2-(2,6-dimethylpyridin-4-ylamino)-5-fluoronicotinamide], the IC50 lay within 0.001 to 0.01 µM.

For `Cc1cncc(Nc2nc(N[C@@H]3CCCC[C@@H]3N)c(F)cc2C(N)=O)c1` [Example 87, 6-((1R,2S)-2-aminocyclohexylamino)-5-fluoro-2-(5-methylpyridin-3-ylamino)nicotinamide], the IC50 was 0.001 to 0.01 µM.

Take `COc1cncc(Nc2nc(N[C@@H]3CCCC[C@@H]3N)c(F)cc2C(N)=O)c1` [Example 88, 6-((1R,2S)-2-aminocyclohexylamino)-5-fluoro-2-(5-methoxypyridin-3-ylamino)nicotinamide]: the half-inhibitory concentration (IC50) was in the range of 0.001 to 0.01 µM.

For `NC(=O)c1cc(F)c(N[C@@H]2CCCC[C@@H]2N)nc1Nc1cncc(F)c1` [Example 89, 6-((1R,2S)-2-aminocyclohexylamino)-5-fluoro-2-(5-fluoropyridin-3-ylamino)nicotinamide], the IC50 lay in the range of 0.001 to 0.01 µM.

Take `COC[C@H](CN)Nc1nc(Nc2cccc(-n3nccn3)c2)c(C(N)=O)cc1F` [Example 91, (S)-2-(3-(2H-1,2,3-triazol-2-yl)phenylamino)-6-(1-amino-3-methoxypropan-2-ylamino)-5-fluoronicotinamide]: the IC50 was in the range of 0.001 to 0.01 µM.

For `CC[C@H](CN)Nc1nc(Nc2cccc(-c3ncccn3)c2)c(C(N)=O)cc1F` [Example 92, (R)-6-(1-aminobutan-2-ylamino)-5-fluoro-2-(3-(pyrimidin-2-yl)phenylamino)nicotinamide], the IC50 fell in the range of 0.01 to 0.1 µM.

As for `CC[C@H](CN)Nc1nc(Nc2ccc3ncsc3c2)c(C(N)=O)cc1F` [Example 93, (R)-6-(1-aminobutan-2-ylamino)-2-(benzo[d]thiazol-6-ylamino)-5-fluoronicotinamide], the IC50 lay in the range of 0.001 to 0.01 µM.

Regarding `CC[C@H](CN)Nc1nc(Nc2ccc3ncccc3c2)c(C(N)=O)cc1F` [Example 94, (R)-6-(1-aminobutan-2-ylamino)-5-fluoro-2-(quinolin-6-ylamino)nicotinamide], the IC50 is 0.001 to 0.01 µM.

Take `CC[C@H](CN)Nc1nc(Nc2cncc(C)c2)c(C(N)=O)cc1F` [Example 95, (R)-6-(1-aminobutan-2-ylamino)-5-fluoro-2-(5-methylpyridin-3-ylamino)nicotinamide]: the IC50 was 0.01 to 0.1 µM.

As to `CC[C@H](CN)Nc1nc(Nc2cncc(OC)c2)c(C(N)=O)cc1F` [Example 96, (R)-6-(1-aminobutan-2-ylamino)-5-fluoro-2-(5-methoxypyridin-3-ylamino)nicotinamide], the IC50 was 0.01 to 0.1 µM.

Turning to `CC[C@@H](Nc1nc(Nc2ccc3cccnc3c2)c(C(N)=O)cc1F)C(N)=O` [Example 97, (R)-6-(1-amino-1-oxobutan-2-ylamino)-5-fluoro-2-(quinolin-7-ylamino)nicotinamide], the IC50 fell in the range of 0.01 to 0.1 µM.

On to `CC[C@@H](Nc1nc(Nc2ccc3ccncc3c2)c(C(N)=O)cc1F)C(N)=O` [Example 98, (R)-6-(1-amino-1-oxobutan-2-ylamino)-5-fluoro-2-(isoquinolin-7-ylamino)nicotinamide], for which the IC50 was 0.01 to 0.1 µM.

For the compound `CC[C@@H](Nc1nc(Nc2ccc3cnccc3c2)c(C(N)=O)cc1F)C(N)=O` [Example 99], the IC50 lay within 0.01 to 0.1 µM.

For `CC[C@@H](Nc1nc(Nc2ccc3ncccc3c2)c(C(N)=O)cc1F)C(N)=O` [Example 100], the IC50 was in the range of 0.01 to 0.1 µM.

`Cc1cccc(Nc2nc(N[C@@H]3CCCC[C@@H]3N)ccc2C(N)=O)c1` [Example 102, 6-((1R,2S)-2-aminocyclohexylamino)-2-(m-tolylamino)nicotinamide]: the IC50 is 0.001 to 0.01 µM.

Consider `COC[C@H](N)CNc1ccc(C(N)=O)c(Nc2cccc(C)c2)n1` [Example 103, (R)-2-(m-toluidino)-6-(2-amino-3-methoxypropylamino)nicotinamide], for which the IC50 lay in the range of 0.1 to 1 µM.

As for `Cc1cccc(Nc2nc(N[C@H](C)C(N)=O)ccc2C(N)=O)c1` [Example 104, (R)-2-(m-toluidino)-6-(1-amino-1-oxopropan-2-ylamino)nicotinamide], the IC50 is 0.1 to 1 µM.

`Cc1cccc(Nc2nc(N[C@H](CC(C)C)C(N)=O)ccc2C(N)=O)c1` [Example 105, (R)-6-(1-amino-4-methyl-1-oxopentan-2-ylamino)-2-(m-tolylamino)nicotinamide]: the IC50 fell in the range of 0.1 to 1 µM.

Consider `N#Cc1cc(C(N)=O)c(Nc2cccc(-n3nccn3)c2)nc1N[C@@H]1CCCC[C@@H]1N` [Example 106, 2-(3-(2H-1,2,3-triazol-2-yl)phenylamino)-6-((1R,2S)-2-aminocyclohexylamino)-5-cyanonicotinamide], for which the IC50 fell in the range of 0.001 to 0.01 µM.

Turning to `Cc1cccc(Nc2nc(N[C@@H]3CCCC[C@@H]3N)c(C#N)cc2C(N)=O)c1` [Example 107, 6-((1R,2S)-2-aminocyclohexylamino)-5-cyano 2-(m-tolylamino)nicotinamide], the IC50 lay in the range of 0.001 to 0.01 µM.

In the case of `C[C@H](N)CNc1nc(Nc2cccc(-n3nccn3)c2)c(C(N)=O)cc1C#N` [Example 108, (S)-2-(3-(2H-1,2,3-triazol-2-yl)phenylamino)-6-(2-aminopropylamino)-5-cyanonicotinamide], the IC50 lay within 0.01 to 0.1 µM.

With `C[C@H](CN)Nc1nc(Nc2cccc(-n3nccn3)c2)c(C(N)=O)cc1C#N` [Example 109, (R)-2-(3-(2H-1,2,3-triazol-2-yl)phenylamino)-6-(1-aminopropan-2-ylamino)-5-cyanonicotinamide], the IC50 was in the range of 0.01 to 0.1 µM.

As to `CC(C)C[C@H](CN)Nc1nc(Nc2cccc(-n3nccn3)c2)c(C(N)=O)cc1C#N` [Example 110, (R)-2-(3-(2H-1,2,3-triazol-2-yl)phenylamino)-6-(1-amino-4-methylpentan-2-ylamino)-5-cyanonicotinamide], the IC50 was 0.001 to 0.01 µM.

`N#Cc1cc(C(N)=O)c(Nc2cccc(-n3nccn3)c2)nc1NC[C@@H](N)C1CC1` [Example 111, (S)-2-(3-(2H-1,2,3-triazol-2-yl)phenylamino)-6-(2-amino-2-cyclopropylethylamino)-5-cyanonicotinamide]: the IC50 was 0.1 to 1 µM.

As to `C[C@H](CN)Nc1nc(Nc2cccc3nn(C)cc23)c(C(N)=O)cc1C#N` [Example 112, (R)-6-(1-aminopropan-2-ylamino)-5-cyano-2-(2-methyl-2H-indazol-4-ylamino)nicotinamide], the IC50 lay in the range of 0.01 to 0.1 µM.

Turning to `N#Cc1cc(C(N)=O)c(Nc2ccc3ncccc3c2)nc1N[C@@H]1CCCC[C@@H]1N` [Example 113, 6-((1R,2S)-2-aminocyclohexylamino)-5-cyano-2-(quinolin-6-ylamino)nicotinamide], the IC50 fell in the range of 0.001 to 0.01 µM.

In the case of `C[C@H](CN)Nc1nc(Nc2ccc3ncccc3c2)c(C(N)=O)cc1C#N` [Example 114, (R)-6-(1-aminopropan-2-ylamino)-5-cyano-2-(quinolin-6-ylamino)nicotinamide], the IC50 lay in the range of 0.01 to 0.1 µM.

On to `Cn1cc2c(Nc3nc(N[C@@H]4CCCC[C@@H]4N)c(C#N)cc3C(N)=O)cccc2n1` [Example 115, 6-((1R,2S)-2-aminocyclohexylamino)-5-cyano-2-(2-methyl-2H-indazol-4-ylamino)nicotinamide], for which the IC50 was 0.001 to 0.01 µM.
